Values quoted from earlier work, collected in patent US20080153925A1, “Use of Amphiphilic Copolymers as Solubilising Agents” (BASF Aktiengesellschaft, priority 2004, published 2008).
Converted amounts (≈) assume the structure as drawn.

Conditions: literature values

Solubility in water (without copolymer) [µg/mL]	Structure (SMILES)
445 (≈ 1740 µM)	Nc1ccc(S(=O)(=O)Nc2nccs2)cc1 [Sulfathiazole]
0.007 (≈ 0.0085 µM)	CCCCC(CC)COC(=O)c1ccc(Nc2nc(Nc3ccc(C(=O)OCC(CC)CCCC)cc3)nc(Nc3ccc(C(=O)OCC(CC)CCCC)cc3)n2)cc1 (centres unmarked) [Uvinul ® T150, tris(2-ethylhexyl) 4,4′,4″-(1,3,5-triazine-2,4,6-triyltriimino)trisbenzoate]
